Source: ChEMBL document CHEMBL4334438, “Discovery of novel glycogen synthase kinase-3α inhibitors: Structure-based virtual screening, preliminary SAR and biological evaluation for treatment of acute myeloid leukemia” (Eur J Med Chem, 2019)
Active and inactive are the calls of the source. No cut-off for these calls is given here.

Experiments:
[1] = target: Dual specificity mitogen-activated protein kinase kinase 7 (Homo sapiens) (UniProt O14733); assay: Inhibition of recombinant human MKK7beta (2 to end residues) assessed as residual activity at 1 uM using inactive JNK1a1 as substrate incubated for 40 mins in presence of [gamma-33ATP by scintillation counting based radiometry assay relative to control
Dual specificity mitogen-activated protein kinase kinase 7 (Homo sapiens), sequence (O14733 whole entry): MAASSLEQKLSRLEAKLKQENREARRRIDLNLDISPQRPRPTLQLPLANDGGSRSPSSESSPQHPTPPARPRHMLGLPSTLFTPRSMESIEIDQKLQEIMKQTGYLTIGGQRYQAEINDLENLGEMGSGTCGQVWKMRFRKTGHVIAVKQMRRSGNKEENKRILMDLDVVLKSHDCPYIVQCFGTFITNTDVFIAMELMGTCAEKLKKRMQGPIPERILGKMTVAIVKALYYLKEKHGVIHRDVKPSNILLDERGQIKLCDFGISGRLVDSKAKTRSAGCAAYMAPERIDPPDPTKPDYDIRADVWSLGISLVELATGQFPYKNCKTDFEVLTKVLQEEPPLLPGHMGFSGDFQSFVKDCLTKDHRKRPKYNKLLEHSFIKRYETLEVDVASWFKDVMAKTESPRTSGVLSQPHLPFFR

[2] = target: Cyclin-Y/Cyclin-dependent kinase 16 (Homo sapiens) (UniProt Q00536+Q8ND76); assay: Inhibition of recombinant full length human CDK16/cyclinY assessed as residual activity at 1 uM using PKSPKARKKL as substrate incubated for 120 mins in presence of [gamma-33ATP] by scintillation counting based radiometry assay relative to control; format: protein-complex assay
NB-4 [3] = assay: Induction of monocytic differentiation in human NB4 cells assessed as increase in CD14 positive cells at 30 uM after 6 days by FITC staining based flow cytometry analysis; format: functional, cell-based
[4] = target: T1, Glycogen synthase kinase-3 alpha (Homo sapiens, UniProt P49840); assay: Inhibition of GSK-3alpha phosphorylation at Y279 residue in human HL60 cells after 24 hrs by Western blot analysis; format: cell-based
T1 sequence (P49840 2-483 limits assumed): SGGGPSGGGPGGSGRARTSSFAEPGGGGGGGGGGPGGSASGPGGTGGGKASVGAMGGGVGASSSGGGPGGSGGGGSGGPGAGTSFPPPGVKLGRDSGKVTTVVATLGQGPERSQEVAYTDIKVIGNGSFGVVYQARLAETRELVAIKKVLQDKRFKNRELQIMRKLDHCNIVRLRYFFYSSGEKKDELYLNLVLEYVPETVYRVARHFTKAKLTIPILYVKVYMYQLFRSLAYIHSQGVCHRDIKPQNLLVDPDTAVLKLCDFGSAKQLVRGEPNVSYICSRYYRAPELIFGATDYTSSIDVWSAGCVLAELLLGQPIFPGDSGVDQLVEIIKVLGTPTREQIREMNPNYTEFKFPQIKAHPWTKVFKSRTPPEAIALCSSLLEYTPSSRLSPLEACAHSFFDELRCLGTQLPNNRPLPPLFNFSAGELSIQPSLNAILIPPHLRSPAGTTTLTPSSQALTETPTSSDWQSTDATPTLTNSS

[5] = target: Casein kinase I isoform epsilon (Homo sapiens) (UniProt P49674); assay: Inhibition of recombinant human CK1epsilon assessed as residual activity at 1 uM using KRRRALS(p)VASLPGL as substrate incubated for 120 mins in presence of [gamma-33ATP] by scintillation counting based radiometry assay relative to control
Casein kinase I isoform epsilon (Homo sapiens), sequence (P49674 whole entry, looked up, canonical isoform): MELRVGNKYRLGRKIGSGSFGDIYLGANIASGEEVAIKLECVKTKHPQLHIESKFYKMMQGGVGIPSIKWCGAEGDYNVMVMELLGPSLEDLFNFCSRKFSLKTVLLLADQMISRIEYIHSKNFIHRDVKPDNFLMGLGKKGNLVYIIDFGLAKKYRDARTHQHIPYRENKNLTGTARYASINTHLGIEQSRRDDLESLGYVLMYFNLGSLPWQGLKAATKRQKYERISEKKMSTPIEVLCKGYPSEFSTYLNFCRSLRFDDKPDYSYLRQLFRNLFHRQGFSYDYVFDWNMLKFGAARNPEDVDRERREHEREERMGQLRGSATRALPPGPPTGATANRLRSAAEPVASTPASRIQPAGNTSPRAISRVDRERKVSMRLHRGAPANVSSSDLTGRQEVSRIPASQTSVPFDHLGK

[6] = target: Mitogen-activated protein kinase kinase kinase 21 (Homo sapiens) (UniProt Q5TCX8); assay: Inhibition of recombinant human MLK4 assessed as residual activity at 1 uM using by radiometry assay relative to control
[7] = target: Serine/threonine-protein kinase DCLK1 (Homo sapiens) (UniProt O15075); assay: Inhibition of recombinant human DCAMKL1 assessed as residual activity at 1 uM radiometric assay relative to control
[8] = target: Citron Rho-interacting kinase (Homo sapiens) (UniProt O14578); assay: Inhibition of recombinant human CRIK assessed as residual activity at 1 uM KKLRRTLSVA as substrate incubated 120 mins by scintillation counting method relative to control
HL-60 [9] = assay: Induction of cell differentiation in human HL60 cells assessed as increase in CD11c-APC positive cells after 6 days by flow cytometry analysis; format: functional, cell-based
HL-60 [10] = assay: Induction of monocytic differentiation in human HL60 cells assessed as increase in CD11b-APC-Cy7 positive cells at 30 uM after 6 days by flow cytometry analysis; format: functional, cell-based
[11] = target: Serine/threonine-protein kinase OSR1 (Homo sapiens) (UniProt O95747); assay: Inhibition of recombinant human OSR1 assessed as residual activity at 1 uM relative to control
Serine/threonine-protein kinase OSR1 (Homo sapiens), sequence (O95747 2-527 limits assumed): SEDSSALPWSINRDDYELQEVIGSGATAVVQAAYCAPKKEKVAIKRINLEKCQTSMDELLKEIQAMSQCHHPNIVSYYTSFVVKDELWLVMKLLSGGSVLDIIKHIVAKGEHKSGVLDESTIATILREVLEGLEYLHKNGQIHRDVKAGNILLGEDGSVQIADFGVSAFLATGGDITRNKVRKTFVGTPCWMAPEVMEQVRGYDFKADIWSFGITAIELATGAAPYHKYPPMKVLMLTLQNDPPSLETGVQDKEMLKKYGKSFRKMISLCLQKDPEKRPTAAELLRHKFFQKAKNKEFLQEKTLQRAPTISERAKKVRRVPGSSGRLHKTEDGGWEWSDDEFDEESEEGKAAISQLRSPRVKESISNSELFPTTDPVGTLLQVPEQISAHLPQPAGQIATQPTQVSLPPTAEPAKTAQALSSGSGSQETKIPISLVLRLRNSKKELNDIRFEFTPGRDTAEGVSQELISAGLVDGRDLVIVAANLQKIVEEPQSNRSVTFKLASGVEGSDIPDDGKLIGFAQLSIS

Homo sapiens = species on record: Homo sapiens; assay: Selectivity index, ratio of IC50 for inhibition of human GSK-3beta H350L mutant (2 to end residues) to IC50 for inhibition of human GSK-3alpha S449A mutant (2 to end residues)
[12] = target: CDK17/Cyclin-Y (Homo sapiens) (UniProt Q00537+Q8ND76); assay: Inhibition of recombinant full length human CDK17/cyclinY assessed as residual activity at 1 uM using PKSPKARKKL as substrate incubated for 120 mins in presence of [gamma-33ATP] by scintillation counting based radiometry assay relative to control; format: protein-complex assay
CDK17/Cyclin-Y (Homo sapiens), sequence (Q00537 whole entry): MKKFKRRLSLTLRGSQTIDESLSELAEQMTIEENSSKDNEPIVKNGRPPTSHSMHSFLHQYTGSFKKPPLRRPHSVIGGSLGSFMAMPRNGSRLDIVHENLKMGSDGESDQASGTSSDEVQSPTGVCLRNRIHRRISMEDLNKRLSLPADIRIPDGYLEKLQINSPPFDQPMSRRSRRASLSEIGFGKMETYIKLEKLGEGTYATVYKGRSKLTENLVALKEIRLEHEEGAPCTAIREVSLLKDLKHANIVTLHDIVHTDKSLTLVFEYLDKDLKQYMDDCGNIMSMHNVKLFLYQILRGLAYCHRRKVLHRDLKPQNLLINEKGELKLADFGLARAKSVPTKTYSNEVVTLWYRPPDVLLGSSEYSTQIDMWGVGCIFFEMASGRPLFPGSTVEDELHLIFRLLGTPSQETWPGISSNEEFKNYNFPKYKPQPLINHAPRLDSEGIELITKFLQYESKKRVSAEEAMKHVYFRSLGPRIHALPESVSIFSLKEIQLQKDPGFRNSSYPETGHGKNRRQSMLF
CDK17/Cyclin-Y (Homo sapiens), sequence (Q8ND76 2-341 partner limits assumed): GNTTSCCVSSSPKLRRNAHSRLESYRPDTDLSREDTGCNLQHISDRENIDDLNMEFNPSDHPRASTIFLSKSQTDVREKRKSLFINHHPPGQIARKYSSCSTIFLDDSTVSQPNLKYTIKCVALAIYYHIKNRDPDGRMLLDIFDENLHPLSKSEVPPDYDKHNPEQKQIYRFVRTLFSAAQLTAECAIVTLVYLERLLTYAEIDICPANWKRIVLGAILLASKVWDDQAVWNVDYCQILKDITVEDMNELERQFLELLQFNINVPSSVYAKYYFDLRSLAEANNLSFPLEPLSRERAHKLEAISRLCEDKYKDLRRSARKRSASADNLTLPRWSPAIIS

NB-4 [13] = assay: Induction of cell death in human NB4 cells at 10 to 30 uM after 6 days by trypan blue assay; format: cell-based; details: nb-4, 144 h
[14] = tested on: Serine/threonine-protein kinase 38 (NDR1); assay: Inhibition of recombinant human NDR1 assessed as residual activity at 1 uM relative to control
[15] = Activation of wnt/beta-catenin signalling pathway in human NB4 cells assessed as stabilization of beta-catenin at 1 to 30 uM after 24 hrs by Western blot analysis; format: cell-based
NB-4 [16] = assay: Inhibition of colony formation in human NB4 cells preincubated for 72 hrs followed by compound washout and measured after 7 to 10 days; format: functional, cell-based
HL-60 [17] = assay: Induction of cell death in human HL60 cells at 10 to 30 uM after 6 days by trypan blue assay; format: cell-based; details: hl-60, 144 h
NB-4 [18] = assay: Effect on total beta-catenin level in human NB4 cells at 1 to 30 uM after 24 hrs by Western blot analysis; format: ADME, cell-based; details: nb-4, 24 h
NB-4 [19] = assay: Induction of monocytic differentiation in human NB4 cells assessed as increase in CD11c-APC positive cells at 30 uM after 6 days by flow cytometry analysis; format: functional, cell-based
[20] = target: AP2-associated protein kinase 1 (Homo sapiens) (UniProt Q2M2I8); assay: Inhibition of human AAK1 assessed as residual activity at 1 uM using peptide as substrate incubated for 120 mins in presence of [gamma-33ATP] by scintillation counting based radiometry assay relative to control
AP2-associated protein kinase 1 (Homo sapiens), sequence (Q2M2I8 whole entry, looked up): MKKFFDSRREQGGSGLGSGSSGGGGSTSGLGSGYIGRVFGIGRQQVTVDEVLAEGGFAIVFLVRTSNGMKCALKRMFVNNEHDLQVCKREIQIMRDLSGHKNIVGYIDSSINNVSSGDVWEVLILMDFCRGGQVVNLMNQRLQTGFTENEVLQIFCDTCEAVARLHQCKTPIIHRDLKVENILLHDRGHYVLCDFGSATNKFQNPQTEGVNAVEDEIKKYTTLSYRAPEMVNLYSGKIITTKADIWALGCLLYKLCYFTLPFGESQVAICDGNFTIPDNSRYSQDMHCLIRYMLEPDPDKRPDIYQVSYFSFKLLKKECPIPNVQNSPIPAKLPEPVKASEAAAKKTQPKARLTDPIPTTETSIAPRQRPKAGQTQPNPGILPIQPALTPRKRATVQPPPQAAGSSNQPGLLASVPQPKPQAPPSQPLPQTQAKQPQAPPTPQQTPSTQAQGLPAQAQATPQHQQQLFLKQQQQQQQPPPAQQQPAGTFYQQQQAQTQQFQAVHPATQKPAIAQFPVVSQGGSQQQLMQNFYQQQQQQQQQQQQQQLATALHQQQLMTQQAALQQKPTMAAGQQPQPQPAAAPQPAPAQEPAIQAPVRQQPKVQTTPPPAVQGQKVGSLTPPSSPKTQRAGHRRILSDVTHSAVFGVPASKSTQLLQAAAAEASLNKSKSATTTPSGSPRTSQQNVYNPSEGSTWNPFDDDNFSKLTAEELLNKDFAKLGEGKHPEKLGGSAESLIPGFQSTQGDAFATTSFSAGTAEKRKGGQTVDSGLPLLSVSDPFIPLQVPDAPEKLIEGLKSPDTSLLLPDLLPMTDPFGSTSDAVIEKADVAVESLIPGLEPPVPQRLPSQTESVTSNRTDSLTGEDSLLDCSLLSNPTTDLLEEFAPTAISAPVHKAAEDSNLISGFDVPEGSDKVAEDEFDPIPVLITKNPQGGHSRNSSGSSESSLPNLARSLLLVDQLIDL

[21] = target: STE20/SPS1-related proline-alanine-rich protein kinase (Homo sapiens) (UniProt Q9UEW8); assay: Inhibition of recombinant human STK39 assessed as residual activity at 1 uM in presence of [gamma33P]ATP by scintillation counting based radiometry assay relative to control
NB-4 [22] = assay: Induction of cell differentiation in human NB4 cells assessed as increase in CD14-FITC positive cells after 6 days by flow cytometry analysis; format: functional, cell-based
[23] = target: T1, Glycogen synthase kinase-3 alpha; assay: Inhibition of GSK-3alpha phosphorylation at Y279 residue in human NB4 cells after 24 hrs by Western blot analysis; format: cell-based
HL-60 [24] = assay: Induction of monocytic differentiation in human HL60 monocytic assessed as increase in CD11c-APC positive cells at 30 uM after 6 days by flow cytometry analysis; format: functional, cell-based
HL-60 [25] = assay: Induction of cell differentiation in human HL60 cells assessed as increase in CD14-FITC positive cells after 6 days by flow cytometry analysis; format: functional, cell-based
HL-60 [26] = assay: Induction of monocytic differentiation in human HL60 cells assessed as increase in CD14-FITC positive cells at 30 uM after 6 days by flow cytometry analysis; format: functional, cell-based
HL-60 [27] = assay: Inhibition of colony formation in human HL60 cells preincubated for 72 hrs followed by compound washout and measured after 7 to 10 days; format: functional, cell-based
HL-60 [28] = assay: Effect on total beta-catenin level in human HL60 cells at 1 to 30 uM after 24 hrs by Western blot analysis; format: ADME, cell-based; details: hl-60, 24 h
NB-4 [29] = assay: Induction of cell differentiation in human NB4 cells assessed as increase in CD11c-APC positive cells after 6 days by flow cytometry analysis; format: functional, cell-based
[30] = target: Serine/threonine-protein kinase LATS1 (Homo sapiens) (UniProt O95835); assay: Inhibition of human LATS1 assessed as residual activity at 1 uM by radiometric assay relative to control
[31] = target: Serine/threonine-protein kinase LATS2 (Homo sapiens) (UniProt Q9NRM7); assay: Inhibition of human LATS2 assessed as residual activity at 1 uM by radiometric assay relative to control
Serine/threonine-protein kinase LATS2 (Homo sapiens), sequence (Q9NRM7 whole entry): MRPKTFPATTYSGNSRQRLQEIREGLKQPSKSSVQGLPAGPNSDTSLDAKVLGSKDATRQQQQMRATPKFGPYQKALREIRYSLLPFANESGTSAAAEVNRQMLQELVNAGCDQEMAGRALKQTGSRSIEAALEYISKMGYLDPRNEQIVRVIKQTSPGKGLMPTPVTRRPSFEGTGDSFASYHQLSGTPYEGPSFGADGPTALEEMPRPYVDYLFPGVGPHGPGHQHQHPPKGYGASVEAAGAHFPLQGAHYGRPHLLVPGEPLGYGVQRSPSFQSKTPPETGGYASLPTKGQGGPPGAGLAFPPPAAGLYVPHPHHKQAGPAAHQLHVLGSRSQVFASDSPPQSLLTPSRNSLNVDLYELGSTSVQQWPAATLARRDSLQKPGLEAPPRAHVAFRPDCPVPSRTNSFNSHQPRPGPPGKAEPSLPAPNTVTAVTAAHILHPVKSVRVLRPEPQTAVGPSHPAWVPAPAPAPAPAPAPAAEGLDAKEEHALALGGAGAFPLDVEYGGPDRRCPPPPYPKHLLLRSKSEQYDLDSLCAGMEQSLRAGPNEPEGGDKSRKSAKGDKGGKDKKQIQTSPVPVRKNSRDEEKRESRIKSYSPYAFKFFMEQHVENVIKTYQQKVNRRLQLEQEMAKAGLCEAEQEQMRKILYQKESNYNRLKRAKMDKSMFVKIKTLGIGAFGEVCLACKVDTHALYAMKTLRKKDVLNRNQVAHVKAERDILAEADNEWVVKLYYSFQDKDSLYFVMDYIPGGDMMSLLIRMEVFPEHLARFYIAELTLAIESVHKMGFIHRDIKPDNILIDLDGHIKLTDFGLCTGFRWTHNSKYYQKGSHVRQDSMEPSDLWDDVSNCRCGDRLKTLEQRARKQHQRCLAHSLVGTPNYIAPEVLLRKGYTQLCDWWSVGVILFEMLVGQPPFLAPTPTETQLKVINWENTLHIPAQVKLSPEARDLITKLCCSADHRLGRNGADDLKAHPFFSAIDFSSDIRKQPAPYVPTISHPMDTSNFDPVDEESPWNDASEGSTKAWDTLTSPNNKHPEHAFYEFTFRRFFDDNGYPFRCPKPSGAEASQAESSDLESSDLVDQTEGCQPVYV

[32] = target: BMP-2-inducible protein kinase (Homo sapiens) (UniProt Q9NSY1); assay: Inhibition of recombinant human BIKe assessed as residual activity at 1 uM using peptide as substrate incubated for 120 mins in presence of [gamma-33ATP] by scintillation counting based radiometry assay relative to control

`N=C1NC(=O)/C(=C\c2ccc(-c3cccc([N+](=O)[O-])c3)o2)S1` showed an Activity [1] of 93%.
In the case of `C=CCOC(=O)c1cc(-c2ccc(/C=C3/NC(=S)NC3=O)o2)ccc1Cl`, the Activity [2] is reported as 82%, the Activity (NB-4 [3]) is reported as “Active” and the inhibition [4] is reported as “Dose-dependent effect”. It also gave an Activity [5] of 91%, an Activity [6] of 95% and an Activity [7] of 85%. The Activity [8] was 95%, the Activity (HL-60 [9]) was “Dose-dependent effect” and the Activity (HL-60 [10]) was “Active”. The Activity [11] was 118%, the Ratio IC50 (Homo sapiens) was 6.6 and the Activity [12] was 72%. For the same compound, the Activity (NB-4 [13]) was “Non-Toxic”, the Activity [14] was 99% and the Activity [15] was “Not Active”. For the same compound, the inhibition (NB-4 [16]) was “Dose-dependent effect”, the Activity (HL-60 [17]) was “Non-Toxic” and the Activity (NB-4 [18]) was “Non-Toxic”. For the same compound, the Activity (NB-4 [19]) was “Active”, the Activity [20] was 101% and the Activity [21] was 103%. For the same compound, the Activity (NB-4 [22]) was “Dose-dependent effect”, the inhibition [23] was “Dose-dependent effect” and the Activity (HL-60 [24]) was “Active”. The Activity (HL-60 [25]) was “Dose-dependent effect”, the Activity (HL-60 [26]) was “Active” and the inhibition (HL-60 [27]) was “Dose-dependent effect”. The Activity (HL-60 [28]) was “Non-Toxic”, the Activity (NB-4 [29]) was “Dose-dependent effect” and the Activity [30] was 114%. It also gave an Activity [31] of 100% and an Activity [32] of 111%.
